The record followed here is PubChem BioAssay (NCI).

Some test systems named below: A549 NSCLC; HL-60(TB) leukemia; HOP-62 NSCLC; HS 578T breast; IGROV1 ovarian; KM12 colon; LOX IMVI melanoma; NCI-H23 lung; NCI-H460 lung; OVCAR-4 ovarian; RPMI-8226 leukemia; SF-268 CNS; SF-295 CNS; SK-OV-3 ovarian; UACC-62 melanoma; MDA-N.
Assay in all cases: NCI-60 cell line screen, 48 h

Structures are written as SMILES.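 96-well plates; 48 h exposure; 5 concentrations. Endpoints by linear interpolation between flanking doses. Not reached: highest tested concentration assigned. TGI is the concentration that stops growth completely.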

As to `CCCCc1ccc(Nc2nc(SC)c3[nH]cnc3n2)cc1`, the TGI in the assay on A549 NSCLC was over 100 µM; in the assay on HL-60(TB) leukemia, over 46.4 µM; in the assay with HOP-62 NSCLC it was 57.7 µM; in the assay on HS 578T breast, over 100 µM; in the assay with IGROV1 ovarian, over 100 µM; with KM12 colon, over 100 µM. Also, the TGI with LOX IMVI melanoma, in the assay with NCI-H23 lung, with NCI-H460 lung, in the assay with OVCAR-4 ovarian, with RPMI-8226 leukemia and in the assay on SF-268 CNS was over 100 µM throughout. Also, the TGI in the assay with SF-295 CNS, with SK-OV-3 ovarian and with UACC-62 melanoma was over 100 µM each time.
For the compound `Cn1c(O)c(C=Nc2ccccc2[N+](=O)[O-])c(=O)n(C)c1=O`, the TGI with A549 NSCLC, with HOP-62 NSCLC, with HS 578T breast, with IGROV1 ovarian, in the assay with KM12 colon and with LOX IMVI melanoma was over 100 µM each time. For the same compound, the TGI with MDA-N, with NCI-H23 lung, in the assay with NCI-H460 lung, in the assay on OVCAR-4 ovarian, with RPMI-8226 leukemia and with SF-268 CNS was over 100 µM throughout. Moreover, the TGI in the assay on SF-295 CNS, in the assay with SK-OV-3 ovarian and in the assay with UACC-62 melanoma was over 100 µM in each case.
Regarding `CC[C@]1(Cc2ccc(OC)c(OC)c2)C=[N+]([O-])O[C@H](OC2CCCC2(c2ccccc2)c2ccccc2)[C@@H]1OC(C)=O` (some centres undefined), the TGI in the assay with A549 NSCLC is 18.8 µM; in the assay on HL-60(TB) leukemia, 18.8 µM; in the assay on HOP-62 NSCLC, 29.4 µM; in the assay on HS 578T breast, 46.5 µM; with IGROV1 ovarian, 10.6 µM; with KM12 colon, 8.89 µM. The TGI is 6.47 µM in the assay on LOX IMVI melanoma; 19.9 µM in the assay with NCI-H23 lung; 20.7 µM with NCI-H460 lung; 25.5 µM with OVCAR-4 ovarian; 11.4 µM with SF-268 CNS; 17.5 µM with SF-295 CNS. The TGI with SK-OV-3 ovarian stood at 50.2 µM; with UACC-62 melanoma, 12.7 µM.
On to `N#CC(=C1CCN(CCCC(=O)c2ccc(F)cc2)CC1)c1ccccc1`, for which the TGI in the assay with A549 NSCLC, in the assay with HL-60(TB) leukemia, in the assay on HS 578T breast, with IGROV1 ovarian, in the assay on KM12 colon and with LOX IMVI melanoma was over 100 µM throughout. The TGI in the assay with NCI-H23 lung, in the assay with NCI-H460 lung, in the assay with OVCAR-4 ovarian, in the assay on RPMI-8226 leukemia, in the assay with SF-268 CNS and in the assay with SF-295 CNS was over 100 µM each time. Moreover, the TGI with SK-OV-3 ovarian and in the assay with UACC-62 melanoma was over 100 µM in each case.
As for `C/C=C\C(CC(=O)NCCC1CN(S(=O)(=O)c2ccc(C)cc2)c2ccccc21)CC(=O)OC` (centres undefined), the TGI in the assay with A549 NSCLC, in the assay with HOP-62 NSCLC, in the assay on HS 578T breast, with IGROV1 ovarian, in the assay with KM12 colon and in the assay with MDA-N was over 100 µM each time. In addition, the TGI with NCI-H23 lung, in the assay on NCI-H460 lung, in the assay with OVCAR-4 ovarian, in the assay with RPMI-8226 leukemia, in the assay on SF-268 CNS and in the assay on SF-295 CNS was over 100 µM throughout. For the same compound, the TGI in the assay on SK-OV-3 ovarian and in the assay with UACC-62 melanoma was over 100 µM throughout.
On to `Cc1cc2c(cc1Cl)S(=O)(=O)OC(c1ccc([N+](=O)[O-])cc1)=N2`, for which the TGI in the assay with A549 NSCLC, in the assay on HL-60(TB) leukemia, with HOP-62 NSCLC, with HS 578T breast, in the assay with IGROV1 ovarian and in the assay with KM12 colon was over 100 µM each time. Further, the TGI in the assay on LOX IMVI melanoma, with NCI-H460 lung, with OVCAR-4 ovarian, with RPMI-8226 leukemia, with SF-268 CNS and with SF-295 CNS was over 100 µM throughout. Also, the TGI in the assay with SK-OV-3 ovarian and with UACC-62 melanoma was over 100 µM in each case.
With `CCOC(=O)c1cn2c(n1)sc1c(Cl)c(Cl)ccc12`, the TGI in the assay with A549 NSCLC was over 100 µM; with HOP-62 NSCLC, over 51.3 µM; in the assay on HS 578T breast it was 28.6 µM; in the assay with IGROV1 ovarian, over 100 µM; with KM12 colon, over 58.2 µM; with LOX IMVI melanoma it was over 100 µM. Further, the TGI with MDA-N was 3.83 µM; in the assay with NCI-H23 lung, over 100 µM; with NCI-H460 lung it was over 100 µM; with OVCAR-4 ovarian, over 100 µM; in the assay with RPMI-8226 leukemia it was over 100 µM; in the assay with SF-268 CNS it was over 54.9 µM. Moreover, the TGI with SF-295 CNS, with SK-OV-3 ovarian and in the assay with UACC-62 melanoma was over 100 µM in each case.
`COC(=O)c1sc(=S)sc1SCc1ccc(CSc2sc(=S)sc2C(=O)OC)cc1`: the TGI in the assay on A549 NSCLC, in the assay on HOP-62 NSCLC, in the assay with HS 578T breast, in the assay with IGROV1 ovarian, with KM12 colon and in the assay on LOX IMVI melanoma was over 100 µM throughout. The TGI with MDA-N, in the assay with NCI-H23 lung, with NCI-H460 lung, in the assay on OVCAR-4 ovarian, with SF-268 CNS and in the assay with SF-295 CNS was over 100 µM in each case. Moreover, the TGI in the assay with SK-OV-3 ovarian and with UACC-62 melanoma was over 100 µM throughout.
Regarding `N#Cc1c(-c2ccc([N+](=O)[O-])cc2)c(C#N)c(=O)n(NS(=O)(=O)c2ccccc2)c1-c1ccccc1`, the TGI in the assay on A549 NSCLC, with HL-60(TB) leukemia, in the assay on HOP-62 NSCLC, with HS 578T breast, in the assay with IGROV1 ovarian and in the assay on KM12 colon was over 100 µM in each case. Besides, the TGI with LOX IMVI melanoma, in the assay with NCI-H460 lung, in the assay on OVCAR-4 ovarian, in the assay on RPMI-8226 leukemia, with SF-268 CNS and with SF-295 CNS was over 100 µM throughout. For the same compound, the TGI in the assay on SK-OV-3 ovarian and in the assay with UACC-62 melanoma was over 100 µM each time.
